Earlier results, collected in US7524883B2, “Eponemycin and epoxomicin analogs and uses thereof” (Eisai R&D Management Co., Ltd., priority 2002, dated 2009).

Test system: 20S proteasome

Row | SMILES | binding to the 20S proteasome
1 | C=C(C)C[C@H](NC(=O)[C@H](CO)NC(=O)CCCCC(C)C)C(=O)[C@@]1(CO)CO1 [Eponemycin] | bind covalently and irreversibly
2 | CC[C@H](C)[C@H](NC(=O)[C@H]([C@@H](C)CC)N(C)C(C)=O)C(=O)N[C@H](C(=O)N[C@@H](CC(C)C)C(=O)[C@@]1(C)CO1)[C@@H](C)O [Epoxomicin] | bind covalently and irreversibly
